Results reported in US11325899B2, “Benzofurane and benzothiophene derivatives as PGE2 receptor modulators” (IDORSIA PHARMACEUTICALS LTD, priority 2017, dated 2022).

Target: T1, EP2 receptor (Homo sapiens, UniProt P43116)
T1 construct: SF295 glioblastoma cells express high endogenous EP2 and no EP4; host or cells: SF295 glioblastoma cells
Assay: hEP2 cAMP assay (SF295 glioblastoma cells, HTRF cAMP, PGE2 stimulation)
Format: cell-based
Settings: antagonistic activity
In short: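 HTRF cAMP readout gave % cAMP relative to DMSO, fitted to IC50 with duplicate points. Compounds were preincubated 45 min at room temperature with EP2-expressing, EP4-negative SF295 cells in IBMX (2 mM)-containing buffer before a 30 min challenge with PGE2 at 75 nM final, its EC80.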

T1 sequence (P43116 whole entry): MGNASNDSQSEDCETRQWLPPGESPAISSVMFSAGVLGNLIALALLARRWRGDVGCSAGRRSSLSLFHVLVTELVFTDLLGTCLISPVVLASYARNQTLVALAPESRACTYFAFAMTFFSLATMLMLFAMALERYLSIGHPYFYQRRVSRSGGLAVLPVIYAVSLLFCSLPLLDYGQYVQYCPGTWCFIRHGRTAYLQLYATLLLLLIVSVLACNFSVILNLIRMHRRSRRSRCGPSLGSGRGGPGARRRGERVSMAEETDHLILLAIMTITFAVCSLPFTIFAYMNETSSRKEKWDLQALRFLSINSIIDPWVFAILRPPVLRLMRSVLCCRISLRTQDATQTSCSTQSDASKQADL

| SMILES | IC50 [nM] |
| --- | --- |
| CCOc1cc(-c2cc(NCCc3c(C)sc4c(OC)ccc(F)c34)ncn2)sc1C(=O)O [Example 28, 3-Ethoxy-5-{6-[2-(4-fluoro-7-methoxy-2-methyl-benzo[b]thiophen-3-yl)-ethylamino]-pyrimidin-4-yl}-thiophene-2-carboxylic acid] | 11 |
| CCOc1cc(-c2cc(NCCc3c(C)oc4c(OC)ccc(F)c34)ncn2)sc1C(=O)O [Example 34, 3-Ethoxy-5-{6-[2-(4-fluoro-7-methoxy-2-methyl-benzofuran-3-yl)-ethylamino]-pyrimidin-4-yl}-thiophene-2-carboxylic acid] | 6 |
| CCOc1cc(-c2cc(NCCc3c(C)sc4c(C)cc(F)cc34)ncn2)sc1C(=O)O [Example 32, 3-Ethoxy-5-{6-[2-(5-fluoro-2,7-dimethyl-benzo[b]thiophen-3-yl)-ethylamino]-pyrimidin-4-yl}-thiophene-2-carboxylic acid] | 2 |
| CCOc1cc(-c2cc(NCCc3c(Cl)sc4c(C)cc(F)cc34)ncn2)ccc1C(=O)O [Example 59, 4-{6-[2-(2-Chloro-5-fluoro-7-methyl-benzo[b]thiophen-3-yl)-ethylamino]-pyrimidin-4-yl}-2-ethoxy-benzoic acid] | 12 |
| CCOc1cc(-c2cc(NCCc3c(C)oc4c(OC)ccc(F)c34)ncn2)ccc1C(=O)O [Example 67, 2-Ethoxy-4-{6-[2-(4-fluoro-7-methoxy-2-methyl-benzofuran-3-yl)-ethylamino]-pyrimidin-4-yl}-benzoic acid] | 142 |
| CCOc1cc(-c2cc(NCCc3c(C)oc4c(C)cc(Cl)cc34)ncn2)ccc1C(=O)O [Example 64, 4-{6-[2-(5-Chloro-2,7-dimethyl-benzofuran-3-yl)-ethylamino]-pyrimidin-4-yl}-2-ethoxy-benzoic acid] | 7 |
| CSc1cc(-c2cc(NCCc3c(C)sc4c(C)ccc(Cl)c34)ncn2)ccc1C(=O)O [Example 19, 4-{6-[2-(4-Chloro-2,7-dimethyl-benzo[b]thiophen-3-yl)-ethylamino]-pyrimidin-4-yl}-2-methylsulfanyl-benzoic acid] | 83 |
| CCOc1cc(-c2cc(NCCc3c(CC)oc4c(C)cc(F)cc34)ncn2)sc1C(=O)O [Example 39, 3-Ethoxy-5-{6-[2-(2-ethyl-5-fluoro-7-methyl-benzofuran-3-yl)-ethylamino]-pyrimidin-4-yl}-thiophene-2-carboxylic acid] | 28 |
| CSc1cc(-c2cc(NCCc3c(C)sc4ccccc34)ncn2)ccc1C(=O)O [Example 24, 4-{6-[2-(2-Methyl-benzo[b]thiophen-3-yl)-ethylamino]-pyrimidin-4-yl}-2-methylsulfanyl-benzoic acid] | 4 |
| CCOc1cc(-c2cc(NCCc3c(C)sc4c(C)cc(F)cc34)ncn2)ccc1C(=O)O [Example 56, 2-Ethoxy-4-{6-[2-(5-fluoro-2,7-dimethyl-benzo[b]thiophen-3-yl)-ethylamino]-pyrimidin-4-yl}-benzoic acid] | 19 |
| CCSc1cc(-c2cc(NCCc3c(C)oc4ccccc34)ncn2)ccc1C(=O)O [Example 44, 2-Ethylsulfanyl-4-{6-[2-(2-methyl-benzofuran-3-yl)-ethylamino]-pyrimidin-4-yl}-benzoic acid] | 4 |
| CCSc1cc(-c2cc(NCCc3c(C)sc4ccccc34)ncn2)ccc1C(=O)O [Example 43, 2-Ethylsulfanyl-4-{6-[2-(2-methyl-benzo[b]thiophen-3-yl)-ethylamino]-pyrimidin-4-yl}-benzoic acid] | 4 |
| CCOc1cc(-c2cc(NCCc3c(C)oc4c(C)cc(F)cc34)ncn2)sc1C(=O)O [Example 37, 3-Ethoxy-5-{6-[2-(5-fluoro-2,7-dimethyl-benzofuran-3-yl)-ethylamino]-pyrimidin-4-yl}-thiophene-2-carboxylic acid] | 2 |
| CCOc1cc(-c2cc(NCCc3c(C)sc4c(C)ccc(F)c34)ncn2)sc1C(=O)O [Example 25, 3-Ethoxy-5-{6-[2-(4-fluoro-2,7-dimethyl-benzo[b]thiophen-3-yl)-ethylamino]-pyrimidin-4-yl}-thiophene-2-carboxylic acid] | 8 |
| CCOc1cc(-c2cc(NCCc3c(Br)sc4c(C)cc(F)cc34)ncn2)ccc1C(=O)O [Example 58, 4-{6-[2-(2-Bromo-5-fluoro-7-methyl-benzo[b]thiophen-3-yl)-ethylamino]-pyrimidin-4-yl}-2-ethoxy-benzoic acid] | 17 |
| CCOc1cc(-c2cc(NCCc3c(C)oc4c(OC)cc(Cl)cc34)ncn2)sc1C(=O)O [Example 38, 5-{6-[2-(5-Chloro-7-methoxy-2-methyl-benzofuran-3-yl)-ethylamino]-pyrimidin-4-yl}-3-ethoxy-thiophene-2-carboxylic acid] | 12 |
| CCSc1cc(-c2cc(NCCc3c(C)sc4c(C)cccc34)ncn2)ccc1C(=O)O [Example 42, 4-{6-[2-(2,7-Dimethyl-benzo[b]thiophen-3-yl)-ethylamino]-pyrimidin-4-yl}-2-ethylsulfanyl-benzoic acid] | 14 |
| Cc1sc2c(C)cc(F)cc2c1CCNc1cc(-c2cc(C(F)(F)F)c(C(=O)O)s2)ncn1 [Example 46, 5-{6-[2-(5-Fluoro-2,7-dimethyl-benzo[b]thiophen-3-yl)-ethylamino]-pyrimidin-4-yl}-3-trifluoromethyl-thiophene-2-carboxylic acid] | 31 |
| CSc1cc(-c2cc(NCCc3c(C)sc4c(C)cccc34)ncn2)cc(F)c1C(=O)O [Example 47, 4-{6-[2-(2,7-Dimethyl-benzo[b]thiophen-3-yl)-ethylamino]-pyrimidin-4-yl}-2-fluoro-6-methylsulfanyl-benzoic acid] | 12 |
| CCOc1cc(-c2cc(NCCc3c(C)sc4c(C)ccc(Cl)c34)ncn2)sc1C(=O)O [Example 29, 5-{6-[2-(4-Chloro-2,7-dimethyl-benzo[b]thiophen-3-yl)-ethylamino]-pyrimidin-4-yl}-3-ethoxy-thiophene-2-carboxylic acid] | 14 |
| CCOc1cc(-c2cc(NCCc3c(C)sc4c(C)ccc(Cl)c34)ncn2)ccc1C(=O)O [Example 66, 4-{6-[2-(4-Chloro-2,7-dimethyl-benzo[b]thiophen-3-yl)-ethylamino]-pyrimidin-4-yl}-2-ethoxy-benzoic acid] | 101 |
| COc1ccc(Cl)c2c(CCNc3cc(-c4ccc(C(=O)O)c(SC)c4)ncn3)c(C)sc12 [Example 15, 4-{6-[2-(4-Chloro-7-methoxy-2-methyl-benzo[b]thiophen-3-yl)-ethylamino]-pyrimidin-4-yl}-2-methylsulfanyl-benzoic acid] | 21 |
| CCOc1cc(-c2cc(NCCc3c(C#N)sc4c(C)cc(F)cc34)ncn2)ccc1C(=O)O [Example 53, 4-{6-[2-(2-Cyano-5-fluoro-7-methyl-benzo[b]thiophen-3-yl)-ethylamino]-pyrimidin-4-yl}-2-ethoxy-benzoic acid] | 7 |

Other lines, results leading:

| IC50 [nM] | SMILES |
| --- | --- |
| 10 | Cc1sc2ccccc2c1CCNc1cc(-c2ccc(C(=O)O)c(SC(C)C)c2)ncn1 [Example 91, 2-Isopropylsulfanyl-4-{6-[2-(2-methyl-benzo[b]thiophen-3-yl)-ethylamino]-pyrimidin-4-yl}-benzoic acid] |
| 21 | COc1ccc(F)c2c(CCNc3cc(-c4ccc(C(=O)O)c(OC5CC5)c4)ncn3)c(C)sc12 [Example 84, 2-Cyclopropoxy-4-{6-[2-(4-fluoro-7-methoxy-2-methyl-benzo[b]thiophen-3-yl)-ethylamino]-pyrimidin-4-yl}-benzoic acid] |
| 11 | Cc1sc2c(C)cc(F)cc2c1CCNc1cc(-c2ccc(C(=O)O)c(OCCO)c2)ncn1 [Example 86, 4-{6-[2-(5-fluoro-2,7-dimethyl-benzo[b]thiophen-3-yl)-ethylamino]-pyrimidin-4-yl}-2-(2-hydroxy-ethoxy)-benzoic acid] |
| 39 | Cc1sc2c(C)cccc2c1CCNc1cc(-c2ccc3c(C(=O)O)coc3c2)ncn1 [Example 76, 6-{6-[2-(2,7-Dimethyl-benzo[b]thiophen-3-yl)-ethylamino]-pyrimidin-4-yl}-benzofuran-3-carboxylic acid] |
| 106 | Cc1sc2c(C)cc(F)cc2c1CCNc1cc(-c2ccc(-c3nc(=O)[nH]o3)cc2)ncn1 [Example 79, 5-(4-{6-[2-(5-Fluoro-2,7-dimethyl-benzo[b]thiophen-3-yl)-ethylamino]-pyrimidin-4-yl}-phenyl)-[1,2,4]oxadiazol-3(2H)-one [tautomeric form: 5-(4-(6-((2-(5-fluoro-2,7-dimethylbenzo[b]thiophen-3-yl)ethyl)amino)pyrimidin-4-yl)phenyl)-[1,2,4]oxadiazol-3-ol]] |
| 11 | CCCSc1cc(-c2cc(NCCc3c(C)sc4ccccc34)ncn2)ccc1C(=O)O [Example 88, 4-{6-[2-(2-Methyl-benzo[b]thiophen-3-yl)-ethylamino]-pyrimidin-4-yl}-2-propylsulfanyl-benzoic acid] |
| 10 | CCOc1cc(-c2cc(NCCc3c(C)oc4c(Cl)cc(Cl)cc34)ncn2)ccc1C(=O)O [Example 71, 4-{6-[2-(5,7-Dichloro-2-methyl-benzofuran-3-yl)-ethylamino]-pyrimidin-4-yl}-2-ethoxy-benzoic acid] |
| 6 | Cc1sc2c(C)cc(F)cc2c1CCNc1cc(-c2ccc(C(=O)O)c(OC3CC3)c2)ncn1 [Example 195, 2-Cyclopropoxy-4-{6-[2-(5-fluoro-2,7-dimethyl-benzo[b]thiophen-3-yl)-ethylamino]-pyrimidin-4-yl}-benzoic acid] |
| 5 | CCCSc1cc(-c2cc(NCCc3c(C)oc4ccccc34)ncn2)ccc1C(=O)O [Example 89, 4-{6-[2-(2-Methyl-benzofuran-3-yl)-ethylamino]-pyrimidin-4-yl}-2-propylsulfanyl-benzoic acid] |
| 9 | CCOc1cc(-c2cc(NCCc3c(Cl)sc4ccccc34)ncn2)ccc1C(=O)O [Example 75, 4-{6-[2-(2-chloro-benzo[b]thiophen-3-yl)-ethylamino]-pyrimidin-4-yl}-2-ethoxy-benzoic acid] |
